Series [1] in a line: Rate of dipeptide cleavage from model hexapeptide in PBS. Here is the method: The rate of cleavage was determined for the respective propeptides. The concentrations of the propeptides and the model parent peptide were determined by their respective peak areas. […] The slope of this plot provides the rate constant ‘k’.
The target of a further series is T1, insulin receptor (IR-B) (Homo sapiens, UniProt P06213).
T1 construct: expressed in transfected cells
The experiment in a line: In vitro activity at insulin B receptor (IR-B). The format is cell-based. To be noted: Table 4; read-out: Normalized IR-B EC50 (nM) MEAN. On the procedure:
Color development was stopped 5 min later by adding 0.05 ml 1 N HCl. Absorbance at 450 nm was measured on Titertek Multiscan MCC340 (ThermoFisher, Pittsburgh, Pa.). […] Structures associated with the abbreviated lipidated groups designated in Table 4 are as follows: […]

The next series addresses T2, GLP-1 receptor (Homo sapiens, UniProt P43220).
T2 construct: expressed in transfected cells; host or cells: HEK293
Briefly: cAMP synthesis luciferase reporter assay in HEK293 cells, GLP-1 receptor. Type of series: cell-based. To be noted: for EC50: read-out: Normalized GLP-1 EC50 (nM) MEAN, Table 4. The text has this:
(§1) Structures associated with the abbreviated lipidated groups designated in Table 4 are as follows: […]
Background: A reporter such as luciferase makes a cellular process visible.

Series [2] has as its system diabetic mice. Briefly: Blood glucose, food intake and body weight in diabetic mice. Type of series: in vivo. To be noted: for blood glucose levels and duration of action: FIG. 15B; for body weight: FIG. 17D. On the procedure:
Six- to eight-week-old male C57BL/6 mice were maintained at 23° C., constant humidity, and a 12-h light-dark cycle. The acute in vivo effects of select peptides were evaluated by subcutaneously injecting peptides solubilized in physiologically buffered saline or a vehicle control to normal or diabetic mice. Blood glucose was measured at various time points through the course of a 24 hr period following administration of the peptides. Each group of mice contained 8 animals per group. The average body weight was ˜25 g. Mice were made diabetic by administration of streptozotocin.
Repeat daily subcutaneous administration of the peptides or vehicle control was administered to the mice for periods of five days to two weeks. The obese mice were given a diabetogenic diet Mice had free access to water and were fed ad libitum with a high fat diet (HFD) comprising 58% of calories from fat (D12331; Research Diets, New Brunswick, N.J.) and each group of mice contained 8 animals per group. The average body weight was ˜50 g and the mice were ˜6 months old males. Body weight and food intake were measured on the days that peptide or vehicle control was administered to the mice. Fasting blood glucose levels were measured repeatedly.

Series [3] relates to diabetic mice. Described as above. To be noted: four days; for weight loss: daily or twice a day, FIG. 14B. Type of series: in vivo.
The next series addresses T3, GIP receptor (Homo sapiens, UniProt P48546).
T3 construct: expressed in transfected cells; host or cells: HEK293
T3 sequence (P48546 22-466): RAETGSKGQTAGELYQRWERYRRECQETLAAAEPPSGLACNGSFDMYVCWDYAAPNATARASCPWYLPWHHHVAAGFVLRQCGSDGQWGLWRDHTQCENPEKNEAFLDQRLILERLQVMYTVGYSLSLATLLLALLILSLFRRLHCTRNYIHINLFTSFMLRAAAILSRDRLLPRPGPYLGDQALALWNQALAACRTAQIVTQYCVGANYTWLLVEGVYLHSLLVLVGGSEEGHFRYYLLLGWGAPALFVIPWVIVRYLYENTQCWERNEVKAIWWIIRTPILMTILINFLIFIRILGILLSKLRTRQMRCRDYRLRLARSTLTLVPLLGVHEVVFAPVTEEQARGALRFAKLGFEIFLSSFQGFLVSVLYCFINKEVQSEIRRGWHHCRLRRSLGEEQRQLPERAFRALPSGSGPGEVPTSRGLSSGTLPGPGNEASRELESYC
The experiment in a line: cAMP synthesis luciferase reporter assay in HEK293 cells, GIP receptor. Type of series: cell-based. To be noted: read-out: Normalized GIP EC50 (nM) MEAN; Table 4.
Text: as §1

Starred links: 1 amine or outer side, 2 acyl side, 3 side chain; linkers in the order of their positions; H or OH if unused. Non-standard residues stand in square brackets, D forms with d. Groups on a side chain read outwards from the residue. No end group written: not given here. *: point of attachment. γGlu = O=C(O)[C@H](CCC(=O)[*:2])N[*:1]; Palmitoyl = CCCCCCCCCCCCCCCC(=O)*; Aib = CC(C)(N)C(=O)O

T2 sequence (P43220 24-463, species assumed): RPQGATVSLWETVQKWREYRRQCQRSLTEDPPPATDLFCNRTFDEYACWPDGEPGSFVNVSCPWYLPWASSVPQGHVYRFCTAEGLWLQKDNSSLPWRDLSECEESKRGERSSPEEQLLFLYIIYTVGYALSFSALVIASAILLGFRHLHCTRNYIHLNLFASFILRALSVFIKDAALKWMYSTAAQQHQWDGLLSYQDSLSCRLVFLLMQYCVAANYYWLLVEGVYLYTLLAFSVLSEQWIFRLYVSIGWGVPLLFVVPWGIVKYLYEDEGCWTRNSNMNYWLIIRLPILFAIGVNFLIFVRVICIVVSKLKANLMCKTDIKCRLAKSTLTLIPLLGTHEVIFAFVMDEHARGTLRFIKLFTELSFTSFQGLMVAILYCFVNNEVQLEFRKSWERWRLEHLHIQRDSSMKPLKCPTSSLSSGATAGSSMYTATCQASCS

Take `C[C@@H](O)[C@H](NC(=O)CNC(=O)[C@H](CCCNC(=N)N)NC(=O)[C@H](CO)NC(=O)[C@H](Cc1c[nH]cn1)NC(=O)[C@@H](N)Cc1ccc(NC(=O)CNC(=O)CN)cc1)C(=O)N[C@@H](Cc1ccccc1)C(N)=O`: in series [1] (Table 2, result in words, PBS), the t1/2 entry is given as “No cleavage”.
Same read-out and setting: for `C[C@@H](O)[C@H](NC(=O)CNC(=O)[C@H](CCCNC(=N)N)NC(=O)[C@H](CO)NC(=O)[C@H](Cc1c[nH]cn1)NC(=O)[C@@H](N)Cc1ccc(NC(=O)CNC(=O)CO)cc1)C(=O)N[C@@H](Cc1ccccc1)C(N)=O` the value was “No cleavage”.
Consider `CC(C)=C(N)C(=O)N1CCC[C@H]1C(=O)N[C@@H](Cc1c[nH]cn1)C(=O)N[C@@H](CO)C(=O)N[C@@H](CCCNC(=N)N)C(=O)NCC(=O)N[C@H](C(=O)N[C@@H](Cc1ccccc1)C(N)=O)[C@@H](C)O`, for which, in series [1] (buffer), the t1/2 entry is “No cleavage”.
On the same count and under the same terms, then `C[C@@H](O)[C@H](NC(=O)CNC(=O)[C@H](CCCNC(=N)N)NC(=O)[C@H](CO)NC(=O)[C@H](Cc1c[nH]cn1)NC(=O)[C@@H]1CCCN1C(=O)[C@@H](O)Cc1ccccc1)C(=O)N[C@@H](Cc1ccccc1)C(N)=O`, with “No cleavage”.
On the same count and under the same terms, for `C[C@@H](O)[C@H](NC(=O)CNC(=O)[C@H](CCCNC(=N)N)NC(=O)[C@H](CO)NC(=O)[C@H](Cc1c[nH]cn1)NC(=O)[C@@H]1CCCN1C(=O)CO)C(=O)N[C@@H](Cc1ccccc1)C(N)=O` the value was “No cleavage”; for `C[C@@H](O)[C@H](NC(=O)CNC(=O)[C@H](CCCNC(=N)N)NC(=O)[C@H](CO)NC(=O)[C@H](Cc1c[nH]cn1)NC(=O)[C@@H]1CCCN1C(=O)[C@@H]1CCCN1)C(=O)N[C@@H](Cc1ccccc1)C(N)=O` [Table 3 no. 8: P, P, H-SRGTF-NH2], “No cleavage”.
The same measure, in the same setting: for `C[C@@H](O)[C@H](NC(=O)CNC(=O)[C@H](CCCNC(=N)N)NC(=O)[C@H](CO)NC(=O)[C@H](Cc1c[nH]cn1)NC(=O)[C@H]1CCCN1C(=O)[C@@H]1CCCN1)C(=O)N[C@@H](Cc1ccccc1)C(N)=O` [Table 3 no. 12: P, d-P, H-SRGTF-NH2] the value was “No cleavage”; for `C[C@@H](O)[C@H](NC(=O)CNC(=O)[C@H](CCCNC(=N)N)NC(=O)[C@H](CO)NC(=O)[C@H](Cc1c[nH]cn1)NC(=O)[C@@H]1CCCN1C(=O)[C@H]1CCCN1)C(=O)N[C@@H](Cc1ccccc1)C(N)=O` [Table 3 no. 13: d-P, P, H-SRGTF-NH2], “No cleavage”.
Usually half-life stands for the time needed for the level to fall by half in the phase considered. A higher half-life goes with slow loss. Regarding `CNC(C)(C)C(=O)N1CCC[C@H]1C(=O)N[C@@H](Cc1c[nH]cn1)C(=O)N[C@@H](CO)C(=O)N[C@@H](CCCNC(=N)N)C(=O)NCC(=O)N[C@H](C(=O)N[C@@H](Cc1ccccc1)C(N)=O)[C@@H](C)O` [Table 3 no. 19: N—Me-Aib, P, H-SRGTF-NH2], in series [1] (buffer), the half-life was > 20.8 days.
For “APHSRGTF-NH2 [Table 3 no. 5: A, P, H-SRGTF-NH2]”, in series [1] (buffer), the t1/2 entry is given as “No cleavage”.
For orientation: EC50 means the concentration at which the effect is half-maximal. As to “CIU-004: XEGTFTSDVSSYLEEQAAKEFIAWLVKGGPSSGAPPPS (SEQ ID NO: 1945); C(S-S)—CH2CH2CH2-B^1 Insulin (conjugate chemistry not built)”, the EC50 was 0.59 nM with insulin receptor (IR-B) and 7.96 nM with GLP-1 receptor.
Consider “CIU-012: HXEGTFTSDUSSYLEEQAAKEFIAWLVKGGPSSGAPPPSG (SEQ ID NO: 1953); C(S-S)—CH2CH2CH2-B^1 Insulin”, for which the “blood glucose levels and duration of action” value with diabetic mice [2] is “demonstrate activity in reducing blood glucose levels and demonstrate an extended duration of action relative to native insulin”.
With “CIU-013: HXEGTFTSDVSSYLEEQAAKEFIAWLVKGGPSSGAPPPSGU (SEQ ID NO: 1954); C(S-S)—CH2CH2CH2-B^1 Insulin”, the food intake result in the series with diabetic mice [3] (FIG. 14C) was “suppresses food intake relative to the administration of the pegylated insulin analog”; with diabetic mice [2] (FIG. 13), “suppressing food intake”. For the same compound, the weight loss result in the series on diabetic mice [3] is “produced significant weight loss”. For the same compound, in the series with diabetic mice [2] (5, 15 or 20 nmoles/kg, FIG. 11B), the lowering blood glucose result is “all doses of the compound are effective in lowering blood glucose”. The “blood glucose levels and duration of action” value in the series on diabetic mice [2] is “demonstrate activity in reducing blood glucose levels and demonstrate an extended duration of action relative to native insulin”. For the same compound, the blood glucose entry in the series with diabetic mice [2] (daily or 2× a day, one fifth the dosage of the pegylated insulin, FIG. 14D) is “would appear to not be as effective as insulin”. In addition, the “24 hour blood glucose” value with diabetic mice [2] (second administration at 6 hours, 10 nmole/kg(×2), FIG. 12B) was “about 100 mg/dL”.
For “CIU-021: HXEGTFTSDUSSYLEEQAAKEFIAWLVKGGPSSGAPPPSG (SEQ ID NO: 1958); Pen(S-S)—CH2CH2CH2-B^1 Insulin”, the “blood glucose levels and duration of action” value with diabetic mice [2] was “demonstrate activity in reducing blood glucose levels and demonstrate an extended duration of action relative to native insulin”.
As to “CIU-26: pegylated native insulin (20 K PEG linked to the B29 side chain) [reference compound]”, the weight loss result in the series with diabetic mice [3] is “failed to induce weight loss”. For the same compound, the food intake result in the series on diabetic mice [2] (FIG. 13) is “does not”; in the series with diabetic mice [2] (FIG. 16C), “did not”; in the series with diabetic mice [2] (seven days, FIG. 17C), “does not”. Besides, in the series on diabetic mice [2] (seven days), the body weight entry was “not”.
As to “CIU-037: HXEGTFTSDVSSYLEEQAAREFIAWLVRGGPSSGAPPPSK(20K PEG) (SEQ ID NO: 1966); C(S-S)—CH2CH2CH2-B^1 Insulin”, the blood glucose levels result with diabetic mice [2] (1, 2.5 or 5 nmol/kg, seven days, FIG. 17B) is “improved blood glucose levels achieved relative to pegylated insulin”; in the series on diabetic mice [2] (5, 10 or 20 nmol/kg, FIG. 16B), “blood glucose levels inversely proportional to the dose administered”. Also, in the series on diabetic mice [2] (FIG. 17E), the “fat mass and lean mass” value is “comes from fat mass and not lean mass”. The food intake result in the series with diabetic mice [2] (seven days, FIG. 17C) is given as “suppress food intake”. Further, the body weight result in the series with diabetic mice [2] (seven days) is “induces loss in body weight”.
Turning to “CIU-055: HXEGTFTSDVSSYLEEQAAREFIAWLVRGGPSSGAPPPSK(20K PEG) (SEQ ID NO: 1974); C(S-S)—CH2CH2CH2-B^1 DesDi”, in the series with insulin receptor (IR-B), the EC50 is 1140 nM.
With “CIU-123: HXEGTFTSDUSIYLDKQAAXEFVNWLLAGGPSSGAPPPS (SEQ ID NO: 2013); C(S-S)—CH2CH2CH2-B^1Desdi (H[Aib]EGTFTSDK([γGlu-Palmitoyl])SIYLDKQAA[Aib]EFVNWLLAGGPSSGAPPPS; also: disulfide-linked propyl to B1 of desdi insulin, site not given here)”, the EC50 with GIP receptor was 0.0036 nM; with GLP-1 receptor it was 0.0032 nM.
“CIU-146: YXEGTFTSDU2SIYLDKQAAXEFVNWLLAGGPSSGAPPPS (SEQ ID NO: 2014); C(S-S)—CH2CH2CH2-B^1Desdi (Y[Aib]EGTFTSDKSIYLDKQAA[Aib]EFVNWLLAGGPSSGAPPPS; not fully specified (residue 10, C-terminus); also: disulfide-linked propyl to B1 of desdi insulin, site not given here)”: the concentration giving a half-maximal response (EC50) in the series with GIP receptor came out at 0.0014 nM.
For the compound “CPHSRGTF-NH2 [Table 3 no. 6: C, P, H-SRGTF-NH2]”, in series [1] (buffer), the t1/2 entry is given as “No cleavage”.
Still for that read-out and setting: for “EPHSRGTF-NH2 [Table 3 no. 10: E, P, H-SRGTF-NH2]” the value was “No cleavage”; for “FPHSRGTF-NH2 [Table 3 no. 1: F, P, H-SRGTF-NH2]”, “No cleavage”.
Same read-out and setting: then “GPHSRGTF-NH2 [Table 3 no. 3: G, P, H-SRGTF-NH2]”, with “No cleavage”.
For the compound “KPHSRGTF-NH2 [Table 3 no. 9: K, P, H-SRGTF-NH2]”, the t1/2 entry in series [1] (Table 3, words or unit not given, PBS) is “No cleavage”.
Regarding “SEQ ID NO: 128: glucagon analog substituting the native glutamine at position 3 with glutamic acid”, the “selectivity for the GLP-1 receptor” value with GLP-1 receptor (versus glucagon receptor) was “tenfold”.
Consider “SPHSRGTF-NH2 [Table 3 no. 7: S, P, H-SRGTF-NH2]”, for which the t1/2 entry in series [1] (buffer) was “No cleavage”.

These data come from patent US10232020B2, “Incretin-insulin conjugates” (priority 2014, dated 2019).
